Laboratory results as given in the OligoGym collection.
Oligonucleotides are written 5' to 3', each unit as a sugar letter and its base; * is a phosphorothioate linkage, no mark a phosphodiester; rarer units and linkages stand in square brackets, end groups in braces. Plain capitals give the bases only. Oligonucleotides are given in HELM: sugar(base)linkage, 5' to 3'; d 2'-deoxyribose, r ribose, m 2'-O-methylribose, p phosphate. ss, as = sense and antisense strand; d = 2'-deoxy (DNA); r = 2'-OH (RNA)

target: TMEM63B; experiment: reporter assay of Huesken 2005; conditions: siRNA
Also: test concentration or dose not given here.

Substance	normalised inhibition (eCFP-eYFP dual reporter) [%]
RNA1{r(U)p.r(C)p.r(G)p.r(U)p.r(C)p.r(C)p.r(U)p.r(C)p.r(U)p.r(U)p.r(C)p.r(A)p.r(U)p.r(C)p.r(C)p.r(U)p.r(C)p.r(C)p.r(U)p.d(T)p.d(T)}|RNA2{r(A)p.r(G)p.r(G)p.r(A)p.r(G)p.r(G)p.r(A)p.r(U)p.r(G)p.r(A)p.r(A)p.r(G)p.r(A)p.r(G)p.r(G)p.r(A)p.r(C)p.r(G)p.r(A)p.d(C)p.d(A)}$$$RNA1{StrandType:ss}|RNA2{StrandType:as}$	55.8
RNA1{r(U)p.r(C)p.r(U)p.r(G)p.r(G)p.r(G)p.r(G)p.r(A)p.r(G)p.r(A)p.r(A)p.r(C)p.r(A)p.r(G)p.r(G)p.r(A)p.r(C)p.r(A)p.r(A)p.d(T)p.d(T)}|RNA2{r(U)p.r(U)p.r(G)p.r(U)p.r(C)p.r(C)p.r(U)p.r(G)p.r(U)p.r(U)p.r(C)p.r(U)p.r(C)p.r(C)p.r(C)p.r(C)p.r(A)p.r(G)p.r(A)p.d(G)p.d(C)}$$$RNA1{StrandType:ss}|RNA2{StrandType:as}$	68
RNA1{r(U)p.r(C)p.r(U)p.r(G)p.r(U)p.r(C)p.r(U)p.r(C)p.r(U)p.r(G)p.r(C)p.r(C)p.r(A)p.r(C)p.r(G)p.r(U)p.r(C)p.r(U)p.r(G)p.d(T)p.d(T)}|RNA2{r(C)p.r(A)p.r(G)p.r(A)p.r(C)p.r(G)p.r(U)p.r(G)p.r(G)p.r(C)p.r(A)p.r(G)p.r(A)p.r(G)p.r(A)p.r(C)p.r(A)p.r(G)p.r(A)p.d(T)p.d(G)}$$$RNA1{StrandType:ss}|RNA2{StrandType:as}$	68.3
RNA1{r(U)p.r(C)p.r(U)p.r(U)p.r(C)p.r(A)p.r(U)p.r(C)p.r(C)p.r(U)p.r(C)p.r(C)p.r(U)p.r(C)p.r(U)p.r(U)p.r(C)p.r(U)p.r(U)p.d(T)p.d(T)}|RNA2{r(A)p.r(A)p.r(G)p.r(A)p.r(A)p.r(G)p.r(A)p.r(G)p.r(G)p.r(A)p.r(G)p.r(G)p.r(A)p.r(U)p.r(G)p.r(A)p.r(A)p.r(G)p.r(A)p.d(G)p.d(G)}$$$RNA1{StrandType:ss}|RNA2{StrandType:as}$	58.4
RNA1{r(U)p.r(G)p.r(A)p.r(A)p.r(U)p.r(G)p.r(A)p.r(G)p.r(A)p.r(A)p.r(G)p.r(C)p.r(C)p.r(U)p.r(C)p.r(U)p.r(U)p.r(G)p.r(G)p.d(T)p.d(T)}|RNA2{r(C)p.r(C)p.r(A)p.r(A)p.r(G)p.r(A)p.r(G)p.r(G)p.r(C)p.r(U)p.r(U)p.r(C)p.r(U)p.r(C)p.r(A)p.r(U)p.r(U)p.r(C)p.r(A)p.d(C)p.d(C)}$$$RNA1{StrandType:ss}|RNA2{StrandType:as}$	39.5
RNA1{r(U)p.r(G)p.r(A)p.r(C)p.r(C)p.r(A)p.r(A)p.r(A)p.r(G)p.r(G)p.r(G)p.r(A)p.r(C)p.r(A)p.r(A)p.r(U)p.r(G)p.r(G)p.r(U)p.d(T)p.d(T)}|RNA2{r(A)p.r(C)p.r(C)p.r(A)p.r(U)p.r(U)p.r(G)p.r(U)p.r(C)p.r(C)p.r(C)p.r(U)p.r(U)p.r(U)p.r(G)p.r(G)p.r(U)p.r(C)p.r(A)p.d(A)p.d(A)}$$$RNA1{StrandType:ss}|RNA2{StrandType:as}$	70.9
RNA1{r(U)p.r(G)p.r(C)p.r(A)p.r(C)p.r(A)p.r(A)p.r(G)p.r(U)p.r(G)p.r(C)p.r(U)p.r(A)p.r(C)p.r(A)p.r(C)p.r(U)p.r(U)p.r(U)p.d(T)p.d(T)}|RNA2{r(A)p.r(A)p.r(A)p.r(G)p.r(U)p.r(G)p.r(U)p.r(A)p.r(G)p.r(C)p.r(A)p.r(C)p.r(U)p.r(U)p.r(G)p.r(U)p.r(G)p.r(C)p.r(A)p.d(T)p.d(G)}$$$RNA1{StrandType:ss}|RNA2{StrandType:as}$	99.1
RNA1{r(U)p.r(G)p.r(C)p.r(A)p.r(G)p.r(C)p.r(G)p.r(A)p.r(G)p.r(U)p.r(C)p.r(C)p.r(C)p.r(U)p.r(G)p.r(C)p.r(A)p.r(C)p.r(A)p.d(T)p.d(T)}|RNA2{r(U)p.r(G)p.r(U)p.r(G)p.r(C)p.r(A)p.r(G)p.r(G)p.r(G)p.r(A)p.r(C)p.r(U)p.r(C)p.r(G)p.r(C)p.r(U)p.r(G)p.r(C)p.r(A)p.d(G)p.d(G)}$$$RNA1{StrandType:ss}|RNA2{StrandType:as}$	25.9
RNA1{r(U)p.r(G)p.r(C)p.r(C)p.r(A)p.r(C)p.r(C)p.r(C)p.r(G)p.r(A)p.r(C)p.r(G)p.r(C)p.r(C)p.r(C)p.r(U)p.r(C)p.r(A)p.r(C)p.d(T)p.d(T)}|RNA2{r(G)p.r(U)p.r(G)p.r(A)p.r(G)p.r(G)p.r(G)p.r(C)p.r(G)p.r(U)p.r(C)p.r(G)p.r(G)p.r(G)p.r(U)p.r(G)p.r(G)p.r(C)p.r(A)p.d(T)p.d(C)}$$$RNA1{StrandType:ss}|RNA2{StrandType:as}$	12.7
RNA1{r(U)p.r(G)p.r(C)p.r(C)p.r(G)p.r(U)p.r(G)p.r(G)p.r(G)p.r(G)p.r(A)p.r(G)p.r(C)p.r(C)p.r(A)p.r(C)p.r(G)p.r(C)p.r(C)p.d(T)p.d(T)}|RNA2{r(G)p.r(G)p.r(C)p.r(G)p.r(U)p.r(G)p.r(G)p.r(C)p.r(U)p.r(C)p.r(C)p.r(C)p.r(C)p.r(A)p.r(C)p.r(G)p.r(G)p.r(C)p.r(A)p.d(G)p.d(G)}$$$RNA1{StrandType:ss}|RNA2{StrandType:as}$	62.7
RNA1{r(U)p.r(G)p.r(C)p.r(U)p.r(G)p.r(C)p.r(C)p.r(U)p.r(G)p.r(U)p.r(C)p.r(A)p.r(A)p.r(C)p.r(U)p.r(U)p.r(C)p.r(U)p.r(C)p.d(T)p.d(T)}|RNA2{r(G)p.r(A)p.r(G)p.r(A)p.r(A)p.r(G)p.r(U)p.r(U)p.r(G)p.r(A)p.r(C)p.r(A)p.r(G)p.r(G)p.r(C)p.r(A)p.r(G)p.r(C)p.r(A)p.d(C)p.d(G)}$$$RNA1{StrandType:ss}|RNA2{StrandType:as}$	60.5
RNA1{r(U)p.r(G)p.r(G)p.r(G)p.r(A)p.r(G)p.r(A)p.r(A)p.r(C)p.r(C)p.r(A)p.r(C)p.r(C)p.r(A)p.r(U)p.r(U)p.r(G)p.r(C)p.r(C)p.d(T)p.d(T)}|RNA2{r(G)p.r(G)p.r(C)p.r(A)p.r(A)p.r(U)p.r(G)p.r(G)p.r(U)p.r(G)p.r(G)p.r(U)p.r(U)p.r(C)p.r(U)p.r(C)p.r(C)p.r(C)p.r(A)p.d(A)p.d(A)}$$$RNA1{StrandType:ss}|RNA2{StrandType:as}$	43.8
RNA1{r(U)p.r(G)p.r(G)p.r(U)p.r(G)p.r(C)p.r(U)p.r(U)p.r(C)p.r(U)p.r(C)p.r(G)p.r(G)p.r(C)p.r(C)p.r(C)p.r(U)p.r(C)p.r(C)p.d(T)p.d(T)}|RNA2{r(G)p.r(G)p.r(A)p.r(G)p.r(G)p.r(G)p.r(C)p.r(C)p.r(G)p.r(A)p.r(G)p.r(A)p.r(A)p.r(G)p.r(C)p.r(A)p.r(C)p.r(C)p.r(A)p.d(C)p.d(A)}$$$RNA1{StrandType:ss}|RNA2{StrandType:as}$	65.1
RNA1{r(U)p.r(G)p.r(U)p.r(G)p.r(U)p.r(A)p.r(A)p.r(A)p.r(U)p.r(G)p.r(C)p.r(C)p.r(A)p.r(G)p.r(G)p.r(G)p.r(C)p.r(U)p.r(G)p.d(T)p.d(T)}|RNA2{r(C)p.r(A)p.r(G)p.r(C)p.r(C)p.r(C)p.r(U)p.r(G)p.r(G)p.r(C)p.r(A)p.r(U)p.r(U)p.r(U)p.r(A)p.r(C)p.r(A)p.r(C)p.r(A)p.d(C)p.d(G)}$$$RNA1{StrandType:ss}|RNA2{StrandType:as}$	66.8
RNA1{r(U)p.r(U)p.r(A)p.r(U)p.r(C)p.r(G)p.r(G)p.r(C)p.r(A)p.r(A)p.r(C)p.r(G)p.r(C)p.r(C)p.r(A)p.r(U)p.r(G)p.r(G)p.r(A)p.d(T)p.d(T)}|RNA2{r(U)p.r(C)p.r(C)p.r(A)p.r(U)p.r(G)p.r(G)p.r(C)p.r(G)p.r(U)p.r(U)p.r(G)p.r(C)p.r(C)p.r(G)p.r(A)p.r(U)p.r(A)p.r(A)p.d(A)p.d(G)}$$$RNA1{StrandType:ss}|RNA2{StrandType:as}$	62.7
RNA1{r(U)p.r(U)p.r(G)p.r(C)p.r(U)p.r(G)p.r(A)p.r(U)p.r(G)p.r(C)p.r(C)p.r(A)p.r(C)p.r(C)p.r(C)p.r(G)p.r(A)p.r(C)p.r(G)p.d(T)p.d(T)}|RNA2{r(C)p.r(G)p.r(U)p.r(C)p.r(G)p.r(G)p.r(G)p.r(U)p.r(G)p.r(G)p.r(C)p.r(A)p.r(U)p.r(C)p.r(A)p.r(G)p.r(C)p.r(A)p.r(A)p.d(C)p.d(T)}$$$RNA1{StrandType:ss}|RNA2{StrandType:as}$	39.7
RNA1{r(U)p.r(U)p.r(U)p.r(A)p.r(U)p.r(C)p.r(G)p.r(G)p.r(C)p.r(A)p.r(A)p.r(C)p.r(G)p.r(C)p.r(C)p.r(A)p.r(U)p.r(G)p.r(G)p.d(T)p.d(T)}|RNA2{r(C)p.r(C)p.r(A)p.r(U)p.r(G)p.r(G)p.r(C)p.r(G)p.r(U)p.r(U)p.r(G)p.r(C)p.r(C)p.r(G)p.r(A)p.r(U)p.r(A)p.r(A)p.r(A)p.d(G)p.d(G)}$$$RNA1{StrandType:ss}|RNA2{StrandType:as}$	36.7

target: MRFAP1; experiment: reporter assay of Huesken 2005; conditions: siRNA

Substance	normalised inhibition (eCFP-eYFP dual reporter) [%]
sense rArArArArUrArArCrUrUrUrGrArUrUrUrGrGrAdTdT / antisense rUrCrCrArArArUrCrArArArGrUrUrArUrUrUrUdCdC	69.9
sense rArArArArUrCrUrUrArCrArUrGrUrUrArArUrAdTdT / antisense rUrArUrUrArArCrArUrGrUrArArGrArUrUrUrUdGdT	76.5
sense rArArArCrUrUrCrArArGrGrArArGrArGrGrCrGdTdT / antisense rCrGrCrCrUrCrUrUrCrCrUrUrGrArArGrUrUrUdTdG	66.3
sense rArArArGrCrArGrCrGrGrArGrArUrGrCrGrGrCdTdT / antisense rGrCrCrGrCrArUrCrUrCrCrGrCrUrGrCrUrUrUdGdC	35.6
sense rArArArUrArArCrUrUrUrGrArUrUrUrGrGrArAdTdT / antisense rUrUrCrCrArArArUrCrArArArGrUrUrArUrUrUdTdC	70.2
sense rArArArUrUrUrUrArUrGrUrGrCrUrArCrArCrUdTdT / antisense rArGrUrGrUrArGrCrArCrArUrArArArArUrUrUdAdA	46.8
sense rArArCrCrUrGrCrCrUrGrArUrGrArGrUrUrUrGdTdT / antisense rCrArArArCrUrCrArUrCrArGrGrCrArGrGrUrUdAdT	52
sense rArArCrUrUrUrGrArUrUrUrGrGrArArArArUrGdTdT / antisense rCrArUrUrUrUrCrCrArArArUrCrArArArGrUrUdAdT	50.3
sense rArArCrUrUrUrGrGrGrUrCrCrCrUrGrUrGrArCdTdT / antisense rGrUrCrArCrArGrGrGrArCrCrCrArArArGrUrUdCdA	26.8
